From ChEMBL document CHEMBL1201862, “PubChem BioAssay data set” (2004)
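Dose response: 5 concentrations. Exposure: 48 h. Format: 96-well plates. Endpoint: linear interpolation; highest concentration if not reached. At the GI50, growth is halved.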 Activity calls are given as the source filed them. Rule as the data show it: active = GI50 up to about 1.1 µM and inactive = higher.

How the values were obtained:
Assay in all cases: NCI anticancer screen, dose series, 48 h
KM12 = tested on: KM12
U-251 = tested on: U-251
A549 = tested on: A549
M19-MEL = tested on: M19-MEL
A498 = tested on: A498
SNB-19 = tested on: SNB-19
NCI-H522 = tested on: NCI-H522
UO-31 = tested on: UO-31
SNB-78 = tested on: SNB-78
OVCAR-5 = tested on: OVCAR-5
SK-MEL-28 = tested on: SK-MEL-28
OVCAR-8 = tested on: OVCAR-8
CCRF-CEM = tested on: CCRF-CEM
UACC-62 = tested on: UACC-62
SF-268 = tested on: SF-268
TK-10 = tested on: TK-10
SF-295 = tested on: SF-295
NCI-H23 = tested on: NCI-H23
HL-60 = tested on: HL-60
IGROV-1 = tested on: IGROV-1
SR = tested on: SR
M14 = tested on: M14
EKVX = tested on: EKVX
MOLT-4 = tested on: MOLT-4
UACC-257 = tested on: UACC-257
DMS-273 = tested on: DMS-273
SK-OV-3 = tested on: SK-OV-3
HT-29 = tested on: HT-29
NCI-H460 = tested on: NCI-H460
HOP-62 = tested on: HOP-62
RXF 393 = tested on: RXF 393
HOP-92 = tested on: HOP-92
ACHN = tested on: ACHN
SF-539 = tested on: SF-539
HCC 2998 = tested on: HCC 2998
OVCAR-4 = tested on: OVCAR-4
RPMI-8226 = tested on: RPMI-8226
SNB-75 = tested on: SNB-75
HCT-116 = tested on: HCT-116
COLO 205 = tested on: COLO 205
MDA-MB-435 = tested on: MDA-MB-435
MCF7 = tested on: MCF7
Hs-578T = tested on: Hs-578T
Malme-3M = tested on: Malme-3M
LOX IMVI = tested on: LOX IMVI
K562 = tested on: K562
PC-3 = tested on: PC-3
DU-145 = tested on: DU-145
CAKI-1 = tested on: CAKI-1
SK-MEL-5 = tested on: SK-MEL-5
HCT-15 = tested on: HCT-15
SN12C = tested on: SN12C
NCI-H226 = tested on: NCI-H226
SK-MEL-2 = tested on: SK-MEL-2
NCI/ADR-RES = tested on: NCI/ADR-RES
MDA-MB-231 = tested on: MDA-MB-231
BT-549 = tested on: BT-549
786-0 = tested on: 786-0
OVCAR-3 = tested on: OVCAR-3
SW-620 = tested on: SW-620
MDA-N = tested on: MDA-N
T47D = tested on: T47D

In the case of `CC1(C(=O)Nc2ccc3ccccc3c2)CC2(C)CC(C)(C1)C(O)NC2=O` (configuration not stated), the GI50 (KM12) was > 100000 nM (inactive), the GI50 (U-251) was > 100000 nM (inactive) and the GI50 (A549) was > 100000 nM (inactive). The GI50 (M19-MEL) was > 100000 nM (inactive), the GI50 (A498) was > 100000 nM (inactive) and the GI50 (SNB-19) was > 100000 nM (inactive). The GI50 (NCI-H522) was > 100000 nM (inactive), the GI50 (UO-31) was > 100000 nM (inactive) and the GI50 (SNB-78) was > 100000 nM (inactive). For the same compound, the GI50 (OVCAR-5) was > 100000 nM (inactive), the GI50 (SK-MEL-28) was > 100000 nM (inactive) and the GI50 (OVCAR-8) was 86900 nM (inactive). The GI50 (CCRF-CEM) was > 100000 nM (inactive), the GI50 (UACC-62) was > 100000 nM (inactive) and the GI50 (SF-268) was > 100000 nM (inactive). The GI50 (TK-10) was > 100000 nM (inactive), the GI50 (SF-295) was > 100000 nM (inactive) and the GI50 (NCI-H23) was > 100000 nM (inactive). The GI50 (HL-60) was > 100000 nM (inactive), the GI50 (IGROV-1) was > 100000 nM (inactive) and the GI50 (SR) was > 100000 nM (inactive). The GI50 (M14) was > 100000 nM (inactive), the GI50 (EKVX) was > 100000 nM (inactive) and the GI50 (MOLT-4) was > 100000 nM (inactive). The GI50 (UACC-257) was 81500 nM (inactive), the GI50 (DMS-273) was > 100000 nM (inactive) and the GI50 (SK-OV-3) was > 100000 nM (inactive). The GI50 (HT-29) was > 100000 nM (inactive), the GI50 (NCI-H460) was > 100000 nM (inactive) and the GI50 (HOP-62) was > 100000 nM (inactive). The GI50 (RXF 393) was > 100000 nM (inactive), the GI50 (HOP-92) was > 100000 nM (inactive) and the GI50 (ACHN) was > 100000 nM (inactive).

In the case of `C[C@@H]1C[C@H](O)[C@]2(O)O[C@@H]3C[C@@]4(C=O)[C@@H](CC[C@@H]5[C@@H]4CC[C@]4(C)[C@@H](C6=CC(=O)OC6)CC[C@]54O)C[C@H]3O[C@@H]2O1` [CALOTROPIN], the GI50 (KM12) was 80.9 nM (active), the GI50 (SF-539) was 21.2 nM (active) and the GI50 (HCC 2998) was 59.3 nM (active). The GI50 (OVCAR-4) was 17.9 nM (active), the GI50 (RPMI-8226) was 24.6 nM (active) and the GI50 (U-251) was 34 nM (active). The GI50 (SNB-75) was 68.9 nM (active), the GI50 (A549) was 14 nM (active) and the GI50 (A498) was 53.1 nM (active). For the same compound, the GI50 (SNB-19) was 83 nM (active), the GI50 (HCT-116) was 19.3 nM (active) and the GI50 (NCI-H522) was 16.2 nM (active). The GI50 (UO-31) was 58.3 nM (active), the GI50 (OVCAR-5) was 126 nM (active) and the GI50 (COLO 205) was 72.6 nM (active). For the same compound, the GI50 (SK-MEL-28) was 112 nM (active), the GI50 (MDA-MB-435) was 67.5 nM (active) and the GI50 (MCF7) was 23.8 nM (active). For the same compound, the GI50 (OVCAR-8) was 34.8 nM (active), the GI50 (CCRF-CEM) was 17.5 nM (active) and the GI50 (Hs-578T) was 26.3 nM (active). The GI50 (Malme-3M) was 16.7 nM (active), the GI50 (LOX IMVI) was 23.1 nM (active) and the GI50 (UACC-62) was 71.8 nM (active). For the same compound, the GI50 (K562) was 36.5 nM (active), the GI50 (PC-3) was 23.4 nM (active) and the GI50 (SF-268) was 40.6 nM (active). The GI50 (TK-10) was 25.4 nM (active), the GI50 (SF-295) was 37.2 nM (active) and the GI50 (NCI-H23) was 18.8 nM (active). The GI50 (HL-60) was 39.7 nM (active), the GI50 (IGROV-1) was 20.9 nM (active) and the GI50 (DU-145) was 13.4 nM (active). For the same compound, the GI50 (SR) was 18.1 nM (active), the GI50 (CAKI-1) was 23 nM (active) and the GI50 (SK-MEL-5) was 27.8 nM (active). For the same compound, the GI50 (HCT-15) was 32.7 nM, the GI50 (M14) was 65 nM (active) and the GI50 (EKVX) was 17.8 nM (active). For the same compound, the GI50 (SN12C) was 20.2 nM (active), the GI50 (NCI-H226) was 81.5 nM (active) and the GI50 (MOLT-4) was 16.3 nM (active). For the same compound, the GI50 (UACC-257) was 59.2 nM (active), the GI50 (SK-MEL-2) was 43.6 nM (active) and the GI50 (NCI/ADR-RES) was 20.6 nM (active). For the same compound, the GI50 (SK-OV-3) was 35.1 nM (active), the GI50 (MDA-MB-231) was 221 nM (active) and the GI50 (BT-549) was 23.1 nM (active). The GI50 (786-0) was 15.6 nM (active), the GI50 (HT-29) was 42.5 nM (active) and the GI50 (OVCAR-3) was 18.2 nM (active). The GI50 (SW-620) was 24.7 nM (active), the GI50 (NCI-H460) was 18.7 nM (active) and the GI50 (HOP-62) was 24.4 nM (active). The GI50 (RXF 393) was 17.6 nM (active), the GI50 (MDA-N) was 69.2 nM (active) and the GI50 (T47D) was 30.3 nM (active). For the same compound, the GI50 (HOP-92) was 54.5 nM (active) and the GI50 (ACHN) was 18.8 nM (active).
